The test system of series [1] is Acanthamoeba castellanii. Description: Encystation assay. The series is classed as cell-based. To be noted: 16% glucose, 48 h, negative control 100% cysts. How it is done: The effects of the compounds on amoeba encystation were determined through the conduction of encystation assays. Briefly, 1 × 10^6 trophozoites were incubated with the compounds in a final concentration of 16% filter-sterilized glucose. Following a 48 h incubation period, 0.1% SDS was added per well for 20 min. The cysts were then counted by using a haemocytometer. To ensure accuracy, Acanthamoeba castellanii was cultured in 16% glucose, serving as the negative control.

The subject of series [2] is Acanthamoeba castellanii cysts. Description: Excystation assay. The series is classed as cell-based. Conditions: cysts in PYG, negative control 100%, read-out: viable trophozoites (re-emergence of cysts to trophozoites). How it is done:
Amoeba culture was suspended in 3 mL phosphate-buffered saline (PBS) and placed on non-nutrient bacteriological agar plates to allow for the growing of Acanthamoeba castellanii cysts. After two weeks, PBS was applied to plates containing amoeba cysts, which were then scraped off. The amoebae were centrifuged at 3000× g for 10 min, and the resulting pellet was resuspended in RPMI. The 5 × 10^5 cysts were then incubated in PYG, along with 50 µM of the compounds. To ensure accuracy, amoeba cysts in PYG alone were considered as the negative control, whereas amoeba cysts in RPMI alone were taken as the positive control, as the cysts would not be able to revert back to trophozoites. The amoeba trophozoites were then numbered by using a haemocytometer.

Series [3] concerns Acanthamoeba castellanii on HeLa cell monolayers. Description: Cytopathogenicity assay (amoeba-mediated host-cell death). To be noted: amoebae pretreated with 50 µM for 2 h, then 24 h on HeLa cells, negative control 100%. The series is classed as cell-based. The method, then:
Amoeba-mediated host-cell death was determined by treating 5 × 10^5 amoebae with 50 µM of compounds. The amoeba-containing plate was then placed in the incubator for 2 h at 30 °C. Following the 2 h incubation period, the treated amoebae were put on confluent HeLa cell monolayers. The plate containing the treated amoebae and HeLa cells was incubated for 24 h. Progressing the incubation period, the supernatant was collected, and the cytotoxicity was determined. Accurate results were ensured through the addition of negative and positive controls. The untreated amoebae, alone, on the cells served as the negative control, while the cells treated with Triton X-100 served as the positive control.

The subject of series [4] is Acanthamoeba castellanii. Put plainly: Amoebicidal assay. The series is classed as cell-based, Acanthamoeba castellanii genotype T4 (ATCC 50492). To be noted: for MIC50 / viability at 50 µM: Acanthamoeba castellanii; for MIC50: read-out: MIC50 (minimum inhibitory concentration required to inhibit 50% of amoeba growth); for viability at 50 µM: 24 h, negative control 100%, read-out: amoeba viability; for A. castellanii, 25 µM: Table 2, 25 µM; for A. castellanii, 25 µM / A. castellanii, 75 µM / A. castellanii, 100 µM: amoeba alone 100; for A. castellanii, 75 µM: Table 2, 75 µM; for A. castellanii, 100 µM: Table 2, 100 µM. How it is done:
Acanthamoeba castellanii genotype T4 (ATCC 50492) was cultivated in 10 mL growth medium of peptone yeast glucose (PYG) in tissue flasks (Baig, et al., 2021; Anwar, et al., 2019). The growth medium, PYG, consists of 0.75% proteose peptone, 0.75% yeast extract, and 1.5% glucose. Next, the amoebae were kept in tissue flasks and incubated at 30 °C.
To determine the compounds’ antiamoebic effects, amoebicidal assays were conducted. The 5 × 10^5 amoebae were placed in a 24-well plate and brought to a final volume of 500 µL. […] The 24-well plate was then placed in a 30 °C incubator for 24 h. Positive and negative controls were added to the assay in order to ensure reliable results. Serving as the negative control was the amoebae alone, with RPMI [4]. Meanwhile, amoebae, along with 0.25% sodium dodecyl sulphate (SDS), were used as the positive control. Through the addition of 0.1% methylene blue, live and dead amoebae were distinguished. Additionally, significant compounds were identified by conducting a Student’s t-test with a two-tailed distribution. Furthermore, the MIC50 values of three compounds were determined by using concentrations of […], 75, and 100 µM.

A further series deals with HeLa cells. Put plainly: Cytotoxicity assay (LDH release). To be noted: for cytotoxicity against human HeLa cells: 50 µM, 24 h, LDH release, Triton X-100 = 100%. The series is classed as cell-based, human. How it is done:
HeLa cells were acquired from American Type Culture Collection (ATCC) of identification ATCC CCL-2, Singapore. The cells are utilized to conduct cytotoxicity and cytopathogenicity assays. Through their cultivation in complete media, the cells were grown, and then they were placed in a 95% humidifying incubator at 37 °C and 5% CO2. Complete medium comprises Roswell Park Memorial Media (RPMI), 1% penicillin–streptomycin, 1% minimum essential medium amino acids, 1% L-glutamine, and 10% fetal bovine serum (FBS). To determine the toxicity of the compounds against human HeLa cells, cytotoxicity assays were conducted. In short, HeLa cells were cultured in 96-well plates and treated with the compounds. The plate was then placed in a humidifying incubator with 95% humidity and 5% CO2, at 37 °C, for 24 h. After 24 h, the supernatant was collected, and the cytotoxicity of the compounds was determined through a cytotoxicity detection kit that measured the quantity of lactate dehydrogenase (LDH) release. Accurate results were ensured through the addition of positive and negative controls. Untreated HeLa cells served as the negative control, whereas HeLa cells treated with 1% Triton X-100 served as the positive control. Finally, the cytotoxic properties were numerically determined by following the necessary calculations: (absorbance of media from cells treated with the drugs—absorbance of media from cells of negative control)/(absorbance of media from cells of positive control—absorbance of media from cells of negative control) × 100 [19].
A general note: LDH leaks from cells whose membrane has failed.

In series [5] the test system is Acanthamoeba cysts and trophozoites. Further details: method as in PMID 9736540. To be noted: 0.5 to 2.5% solution; cited from earlier work.

Values after ≈ are worked out from the molar mass of the structure shown.

`CC(C)c1sc(NC(=O)c2cc(NC(=O)c3cc(NC(=O)c4nccn4C)cn3C)cn2C)nc1C(=O)NCCCN(C)C` [MGB3, N-(3-(dimethylamino)propyl)-5-isopropyl-2-(1-methyl-4-(1-methyl-4-(1-methyl-1H-imidazole-2-carboxamido)-1H-pyrrole-2-carboxamido)-1H-pyrrole-2-carboxamido)thiazole-4-carboxamide]: in the series with Acanthamoeba castellanii [1], the cysts present is 83.5%. For the same compound, the viability at 50 µM in series [2] is 64.3%. Besides, the “amoeba-mediated host-cell death (cytotoxic activity due to amoeba)” value (“amoeba-mediated host-cell death” for short) in series [3] was 41.5%. In the series with Acanthamoeba castellanii [4], the MIC50 amounted to 65.9 µM (≈ 41 µg/mL); the viability at 50 µM is 76.2%; the “A. castellanii, 25 µM” value is 43.7 ± 3.8; the “A. castellanii, 75 µM” value amounted to 51 ± 4.7. For the same compound, in the series on Acanthamoeba castellanii [4], the “A. castellanii, 100 µM” value worked out at 46 ± 4.8. For the same compound, the “cytotoxicity against human HeLa cells” value in the series with HeLa cells was found to be 16.2%.

As to `CC(C)c1sc(NC(=O)c2cc(NC(=O)c3cc(NC(=O)c4cscn4)cn3C)cn2C)nc1C(=O)NCCCN(C)C` [MGB4, N-(3-(dimethylamino)propyl)-5-isopropyl-2-(1-methyl-4-(1-methyl-4-(thiazole-4-carboxamido)-1H-pyrrole-2-carboxamido)-1H-pyrrole-2-carboxamido)thiazole-4-carboxamide], in the series on Acanthamoeba castellanii [1], the cysts present was 82.3%. Besides, the viability at 50 µM came to 47.3% in series [2] and 95.2% with Acanthamoeba castellanii [4]. Besides, the “amoeba-mediated host-cell death” value in series [3] is listed as 49.4%. The “cytotoxicity against human HeLa cells” value in the series with HeLa cells stood at 18.4%.

In the series with Acanthamoeba castellanii [1], `CN(C)CCCNC(=O)c1cc(NC(=O)c2cc(NC(=O)c3cc(NC(=O)c4cscn4)cn3C)cn2C)cn1C` [MGB6, N-(5-((5-((5-((3-(dimethylamino)propyl]carbamoyl)-1-methyl-1H-pyrrol-3-yl)carbamoyl)-1-methyl-1H-pyrrol-3-yl}carbamoyl)-1-methyl-1H-pyrrol-3-yl)-1,3-thiazole-4-carboxamide] yielded a cysts present of 46.3%. Besides, in series [2], the viability at 50 µM was 41.4%. Moreover, the “amoeba-mediated host-cell death” value in series [3] was 49.5%. Besides, in the series on Acanthamoeba castellanii [4], the MIC50 amounted to 58.3 µM (≈ 33.8 µg/mL); the viability at 50 µM stood at 59.5%; the “A. castellanii, 25 µM” value was found to be 57 ± 2.4; the “A. castellanii, 75 µM” value is reported as 48 ± 5.5. In addition, in the series on Acanthamoeba castellanii [4], the “A. castellanii, 100 µM” value is 45 ± 1.4. Further, in the series on HeLa cells, the “cytotoxicity against human HeLa cells” value is on record as 14.4%.

In the case of `Cn1cc(NC(=O)c2cc(NC(=O)c3cc4ccccc4oc3=O)cn2C)cc1C(=O)NCCCN1CCOCC1` [MGB16, 1-methyl-N-(1-methyl-5-{[3-(morpholin-4-yl)propyl]carbamoyl}-1H-pyrrol-3-yl)-4-(2-oxo-2H-chromene-3-amido)-1H-pyrrole-2-carboxamide], in the series on Acanthamoeba castellanii [1], the cysts present was 45.6%. Further, the results for the viability at 50 µM (in series [2]; with Acanthamoeba castellanii [4]) were 51.7% and 43.2%, respectively. Moreover, the “amoeba-mediated host-cell death” value in series [3] was 88.6%. Also, the “cytotoxicity against human HeLa cells” value with HeLa cells is listed as 12.7%.

The compound `Cn1cc(NC(=O)c2cc(NC(=O)CCSc3ccc4ccccc4c3)cn2C)cc1C(=O)NCCCN1CCOCC1` [MGB20, 1-methyl-4-(1-methyl-4-(3-(naphthalen-2-ylthio)propanamido)-1H-pyrrole-2-carboxamido)-N-(3-morpholinopropyl)-1H-pyrrole-2-carboxamide] gave a cysts present in the series with Acanthamoeba castellanii [1] of 39%. Moreover, the viability at 50 µM in series [2] turned out to be 96%. In addition, the “amoeba-mediated host-cell death” value in series [3] turned out to be 83.2%. Moreover, in the series with Acanthamoeba castellanii [4], the MIC50 worked out at 83.6 µM (≈ 50.4 µg/mL); the viability at 50 µM worked out at 81.9%; the “A. castellanii, 25 µM” value was determined as 64 ± 3.2; the “A. castellanii, 75 µM” value amounted to 54.6 ± 5.8. In addition, in the series with Acanthamoeba castellanii [4], the “A. castellanii, 100 µM” value is on record as 48 ± 1.1. Moreover, the “cytotoxicity against human HeLa cells” value with HeLa cells is recorded as 31.4%.

On to `Cc1ccc(CSCCC(=O)Nc2cc(C(=O)Nc3cc(C(=O)NCCCN(C)C)n(C)c3)n(C)c2)cc1` [MGB22, N-(3-(dimethylamino)propyl)-1-methyl-4-(1-methyl-4-(3-((4-methylbenzyl)thio)propanamido)-1H-pyrrole-2-carboxamido)-1H-pyrrole-2-carboxamide], for which the cysts present in the series on Acanthamoeba castellanii [1] was found to be 30.3%. The values for the viability at 50 µM (in series [2]; in the series on Acanthamoeba castellanii [4]) were 52.9% and 66.5%, respectively. For the same compound, the “amoeba-mediated host-cell death” value in series [3] is on record as 71.5%. In addition, the “cytotoxicity against human HeLa cells” value with HeLa cells was 33.7%.

Take `CN(C)CCCNC(=O)c1cc(NC(=O)c2cc(NC(=O)c3ccc(C#Cc4ccccc4)cc3)cn2C)cn1C` [MGB26, N-(3-(dimethylamino)propyl)-1-methyl-4-(1-methyl-4-(4(phenylethynyl)benzamido)-1H-pyrrole-2-carboxamido)-1H-pyrrole-2-carboxamide]: in the series with Acanthamoeba castellanii [1], the cysts present is given as 52.3%. Besides, the results for the viability at 50 µM (in series [2]; in the series on Acanthamoeba castellanii [4]) were 79.1% and 82.7%, respectively. Besides, the “amoeba-mediated host-cell death” value in series [3] was found to be 67.3%. In addition, the “cytotoxicity against human HeLa cells” value in the series with HeLa cells is reported as 33.5%.

Regarding `Cn1cc(NC(=O)c2cc(NC(=O)c3ccc(C#Cc4ccccc4)cc3)cn2C)cc1C(=O)NCCCN1CCOCC1` [MGB28, 1-methyl-4-(1-methyl-4-(4-(phenylethynyl)benzamido)-1H-pyrrole-2-carboxamido)-N-(3-morpholinopropyl)-1H-pyrrole-2-carboxamide], in the series with Acanthamoeba castellanii [1], the cysts present is reported as 29.6%. Also, the viability at 50 µM in series [2] came out at 40.6%; with Acanthamoeba castellanii [4] it was 97.2%. In addition, the “amoeba-mediated host-cell death” value in series [3] is 91.9%. Further, the “cytotoxicity against human HeLa cells” value with HeLa cells turned out to be 13.7%.

`CN(C)CCCNC(=O)c1cc(NC(=O)c2cc(NC(=O)c3ccc(/C=C/c4ccccc4)cc3)cn2C)cn1C` [MGB30, (E)-N-(3-(dimethylamino)propyl)-1-methyl-4-(1-methyl-4-(4-styrylbenzamido)-1H-pyrrole-2-carboxamido)-1H-pyrrole-2-carboxamide] registered a cysts present with Acanthamoeba castellanii [1] of 27.8%. The viability at 50 µM in series [2] was 78.1%; in the series with Acanthamoeba castellanii [4], 63.4%. In addition, the “amoeba-mediated host-cell death” value in series [3] is given as 87.3%. The “cytotoxicity against human HeLa cells” value in the series on HeLa cells is 34%.

In turn, `Cn1cc(NC(=O)c2cc(NC(=O)c3ccc(/C=C/c4ccccc4)cc3)cn2C)cc1C(=O)NCCCN1CCOCC1` [MGB32, (E)-1-methyl-4-(1-methyl-4-(4-styrylbenzamido)-1H-pyrrole-2-carboxamido)-N-(3-morpholinopropyl)-1H-pyrrole-2-carboxamide] showed a cysts present in the series on Acanthamoeba castellanii [1] of 41.5%. Also, the viability at 50 µM came to 62.1% in series [2] and 80.1% in the series on Acanthamoeba castellanii [4]. The “amoeba-mediated host-cell death” value in series [3] is 96.3%. Further, the “cytotoxicity against human HeLa cells” value with HeLa cells is recorded as 22.4%.

On to Triton X-100 [reference compound], for which, in the series on HeLa cells, the “toxic activity (positive control)” value was 100%.

For the compound povidone-iodine, the antiamoebic activity entry in series [5] was “good amount of antiamoebic activity”.
